Tested on: HBsAg in HBV-infected primary human hepatocytes
Experiment: Cryopreserved primary human hepatocytes (PHH) HBV infection assay, extracellular HBsAg
Type: cell-based
Settings: Hepatitis B virus, Hepatocyte, 216 h, read-out: HBsAg IC50
Procedure: This assay is used to confirm the anti-HBV effect of the compounds in HBV PHH infection assay. Cryopreserved PHH (BioreclamationlVT, Lot YJM) was thawed at 37° C. and gently transferred into pre-warmed InVitroGRO HT medium (BioreclamationIVT, Cat. S03317). The mixture was centrifuged at 70 relative centrifugal force (RCF) for 3 minutes at RT, and the supernatant was discarded. Pre-warmed InVitroGRO CP medium (BioreclamationlVT, Cat# S03316) was added to the cell pellet to gently re-suspend cells. The cells were seeded at the density of 5.8×10^4 cells per well to collagen I coated 96-well plate (Gibco, Cat. A1142803) with the InVitroGRO CP medium. All plates were incubated at 37° C. with 5% CO2 and 85% humidity.
At 20 hours after plating, the medium was changed to PHH culture medium (Dulbecco's Modified Eagle Medium (DMEM)/F12 (1:1) (Gibco, Cat. 11320-033), 10% fetal bovine serum (Gibco Cat. 10099141), 100 U/mL penicillin, 100 μg/mL streptomycin (Gibco, Cat. 151401-122), 5 ng/mL human epidermal growth factor (Invitrogen Cat. PHG0311L), 20 ng/mL dexamethasone (Sigma, Cat. D4902) and 250 ng/mL human recombinant insulin (Gibco, Cat. 12585-014)). And the cells were incubated at 37° C. with 5% CO2 and 85% humidity for 4 hours. The medium was then changed to pre-warmed PHH culture medium containing 4% polyethylene glycol (PEG) MW8000 (Sigma, Cat. P1458-50ML) and 1% DMSO (Sigma, Cat. D2650). 5.8×10^6 genomic equivalents of HBV were added into the medium.
At 24 hours post-infection, the cells were gently washed with PBS and refreshed with PHH culture medium supplemented with 1% DMSO, and 0.25 mg/mL Matrix gel (Corning, Cat. 356237) at 200 μL per well. All plates were immediately placed in at 37° C. CO2 incubator.
24 hours later, serial dilutions of compounds made with DMSO were further diluted with the same culture medium (PHH culture medium supplemented with 1% DMSO and 0.25 mg/mL Matrix gel as described above) before they were added to the cells to reach desired final compound concentrations and 1% DMSO concentration. The medium containing the compounds were refreshed every three days.
At 9 days post-compound treatment, extracellular HBsAg level were measured with Chemiluminescence Immuno Assay (CLIA) kit (Autobio, HBsAg Quantitative CLIA).
HBsAg IC50 values were derived from the dose-response curve using 4 parameter logistic curve fit method. The compounds of formula (I) have HBsAg IC50<20 μM, particularly <1 μM.

In order of rising IC50:
1. O=C(O)C1NC(c2ccccc2)=Nc2c(Cl)cccc21 (stereo not drawn) [Example 2, 8-chloro-2-phenyl-3,4-dihydroquinazoline-4-carboxylic Acid]  415 nM
2. O=C(O)C1NC(c2ccc(Cl)cc2)=Nc2c(Cl)cccc21 (stereo not drawn) [Example 3, 8-chloro-2-(4-chlorophenyl)-3,4-dihydroquinazoline-4-carboxylic Acid]  1500 nM
3. O=C(O)C1NC(c2ccc(Br)cc2)=Nc2c(Cl)cccc21 (stereo not drawn) [Example 1, 2-(4-bromophenyl)-8-chloro-3,4-dihydroquinazoline-4-carboxylic Acid]  3070 nM

Tested on: HBeAg level in HepDES19 cells (surrogate marker for HBV cccDNA)
Experiment: Engineered HepDES19 primary screen assay (HBeAg as surrogate marker for cccDNA)
Type: cell-based
Settings: Hepatitis B virus, 120 h; HepDES19 cells, 5 days incubation with compound, HBeAg ELISA; read-out: IC50 (HBeAg level, HepDES19 primary screen assay)
From the text: The assay was employed to screen for novel cccDNA inhibitors. HepDES19 is a cccDNA-producing cell line. In this cell line, HBeAg in the cell culture supernatant as surrogate marker, as HBeAg production depends on cccDNA level and activity. HepDES19 is an engineered cell line which contains a 1.1 unit length HBV genome, and pgRNA transcription from the transgene is controlled by Tetracycline (Tet). In the absence of Tet, pgRNA transcription will be induced, but HBV e antigen (HBeAg) could not be produced from this pgRNA due to very short leader sequence before the HBeAg start codon and the start codon is disrupted. Only after cccDNA is formed, the missing leader sequence and start codon mutation would be restored from the 3′-terminal redundancy of pgRNA, and then HBeAg could be synthesized. Therefore, HBeAg could be used as a surrogate marker for cccDNA (Zhou, T. et al., Antiviral Res.(2006), 72(2), 116-124; Guo, H. et al., J. Virol. (2007), 81(22), 12472-12484).
HepDES19 cells were seeded at 2×10^6 cells per T150 flask and cultured with the culture medium (Dulbecco's Modified Eagle Medium: Nutrient Mixture F-12 [DMEM-F12, Gibco Cat. 11320-82], 10% Fetal Bovine Serum [FBS, Clontech Cat. 631101], 0.1 mM Non-Essential Amino Acids Solution [NEAA, Gibco Cat. 11140-050], 50 μg/mL Penicillin-Streptomycin [PS, Invitrogen Cat. 15140-163], 500 μg/mL Geneticin [G418, Invitrogen Cat. 10131-027]) containing 3 μg/mL Tet (Sigma, Cat. 87128) for 5 days. Cells were then seeded at 4×10^6 cells per T150 in the same culture medium as described above in the absence of Tet for 8 days. Cells were then harvested and frozen at density of 2×10^6 cells per mL. For compound testing, the frozen cells were thawed and seeded into 96-well plates at a density of 6 ×10^4 cells per well. At 24hours after seeding, half log serial dilutions of compounds made with Dimethyl sulfoxide (DMSO, Sigma, Cat. D2650) were further diluted with the same culture medium as described above before they were added to the cells to reach desired final compound concentrations and 1% DMSO concentration. Plates were then incubated at 37° C. for another 5 days before measurement of HBeAg level and cell viability. Intracellular HBeAg level were measured with enzyme-linked immunosorbent assay (ELISA) kit (Shanghai Kehua Diagnostic Medical Products Co., Ltd). Cell viability was assessed using Cell Counting Kit-8 (DonJindo, Cat. CK04-20). IC50 values were derived from the dose-response curve using 4 parameter logistic curve fit method.
The compounds of the present invention were tested for their capacity to inhibit extracellular HBeAg level as described herein.

In order of falling IC50:
1. OCCOc1ccc(C2=Nc3c(Cl)cccc3CN2)cc1 [Example 27, 2-[4-(8-chloro-3,4-dihydroquinazolin-2-yl)phenoxy]ethanol]  11600 nM
2. O=C(O)C1NC(c2ccc(Cl)cc2)=Nc2c(Cl)cccc21 (stereo not drawn) [Example 3, 8-chloro-2-(4-chlorophenyl)-3,4-dihydroquinazoline-4-carboxylic Acid]  10300 nM
3. CC1c2ccc(C(F)(F)F)cc2N=C(c2cccc(Br)c2)N1CCO (stereo not drawn) [Example 25, 2-[2-(3-bromophenyl)-4-methyl-7-(trifluoromethyl)-4H-quinazolin-3-yl]ethanol]  9550 nM
4. COc1ccc(C2=Nc3c(Cl)cccc3C(C(=O)O)N2)cn1 (stereo not drawn) [Example 8, 8-chloro-2-(6-methoxy-3-pyridyl)-3,4-dihydroquinazoline-4-carboxylic Acid]  9160 nM
5. CC1(C)NC(c2ccc(Br)cc2)=Nc2c(Cl)cccc21 [Example 34, 2-(4-bromophenyl)-8-chloro-4,4-dimethyl-3H-quinazoline hydrofluoride]  5780 nM
6. O=C(O)C1NC(c2ccc(Br)cc2)=Nc2c(Cl)cccc21 (stereo not drawn) [Example 1, 2-(4-bromophenyl)-8-chloro-3,4-dihydroquinazoline-4-carboxylic Acid]  5650 nM
7. CC1c2cccc(Cl)c2N=C(c2ccc(OCCOCC(=O)O)cc2)N1C (stereo not drawn) [Example 26, 2-[2-[4-(8-chloro-3,4-dimethyl-4H-quinazolin-2-yl)phenoxy]ethoxy]acetic acid]  5540 nM
8. OCC1NC(c2ccc(Br)cc2)=Nc2c(Cl)cccc21 (stereo not drawn) [Example 38, [2-(4-bromophenyl)-8-chloro-3,4-dihydroquinazolin-4-yl]methanol]  5320 nM
9. CC1NC(c2ccc(OCCO)cc2)=Nc2c(Cl)cccc21 (stereo not drawn) [Example 28, 2-[4-(8-chloro-4-methyl-3,4-dihydroquinazolin-2-yl)phenoxy]ethanol]  4770 nM
10. O=C(O)C1NC(c2ccccc2)=Nc2c(Cl)cccc21 (stereo not drawn) [Example 2, 8-chloro-2-phenyl-3,4-dihydroquinazoline-4-carboxylic Acid]  2990 nM
11. COc1ccc(C2=Nc3c(Cl)cccc3C(C(N)=O)N2)cc1 (stereo not drawn) [Example 14, 8-chloro-2-(4-methoxyphenyl)-3,4-dihydroquinazoline-4-carboxamide]  2470 nM
12. CC1c2ccc(C(F)(F)F)cc2N=C(c2cccc(Br)c2)N1C (stereo not drawn) [Example 24, 2-(3-bromophenyl)-3,4-dimethyl-7-(trifluoromethyl)-4H-quinazoline]  2100 nM
13. CC1NC(c2nc(Br)cs2)=Nc2c(Cl)cccc21 (stereo not drawn) [Example 31, 4-bromo-2-(8-chloro-4-methyl-3,4-dihydroquinazolin-2-yl)thiazole]  2030 nM
14. CC1NC(c2ccc(OCCOCC(=O)O)cc2)=Nc2cc(C(F)(F)F)ccc21 (stereo not drawn) [Example 20, 2-[2-[4-[4-methyl-7-(trifluoromethyl)-3,4-dihydroquinazolin-2-yl]phenoxy]ethoxy]acetic Acid]  2010 nM
15. CC1NC(c2ccc(Br)cc2OCCOC2CC(C(=O)O)C2)=Nc2c(Cl)cccc21 (stereo not drawn) [Example 37, 3-[2-[5-bromo-2-(8-chloro-4-methyl-3,4-dihydroquinazolin-2-yl)phenoxy]ethoxy]cyclobutanecarboxylic Acid]  1970 nM
16. CC1NC(c2ccc(OCCOCC(=O)O)cc2)=Nc2c(Cl)cccc21 (stereo not drawn) [Example 23, 2-[2-[4-(8-chloro-4-methyl-3,4-dihydroquinazolin-2-yl)phenoxy]ethoxy]acetic Acid]  1780 nM
17. O=C(C1NC(c2ccc(Br)cc2)=Nc2cc(C(F)(F)F)ccc21)N1CCOCC1 (stereo not drawn) [Example 17, [2-(4-bromophenyl)-7-(trifluoromethyl)-3,4-dihydroquinazolin-4-yl]-morpholino-methanone]  1650 nM
18. CC1NC(c2ccc(OCCO[C@H]3C[C@@H](C(=O)O)C3)cc2)=Nc2c(Cl)cccc21 (stereo partly drawn) [Example 21, cis-3-[2-[4-(8-chloro-4-methyl-3,4-dihydroquinazolin-2-yl)phenoxy]ethoxy]cyclobutanecarboxylic Acid]  1030 nM
19. CC1NC(c2cccc(Br)c2)=Nc2cc(C(F)(F)F)ccc21 (stereo not drawn) [Example 33, 2-(3-bromophenyl)-4-methyl-7-(trifluoromethyl)-3,4-dihydroquinazoline]  860 nM
20. CC1NC(n2cnc(Br)c2)=Nc2cc(C(F)(F)F)ccc21 (stereo not drawn) [Example 30, 2-(4-bromoimidazol-1-yl)-4-methyl-7-(trifluoromethyl)-3,4-dihydroquinazoline]  778 nM
21. CCOc1ccc(C2=Nc3c(Cl)cccc3C(C(=O)O)N2)cn1 (stereo not drawn) [Example 9, 8-chloro-2-(6-ethoxy-3-pyridyl)-3,4-dihydroquinazoline-4-carboxylic Acid]  450 nM
22. Clc1cccc2c1N=C(c1ccc(Br)cc1)NC2C1CC1 (stereo not drawn) [Example 35, 2-(4-bromophenyl)-8-chloro-4-cyclopropyl-3,4-dihydroquinazoline]  410 nM
23. NC(=O)C1NC(c2cccc(Br)c2)=Nc2cc(C(F)(F)F)ccc21 (stereo not drawn) [Example 15, 2-(3-bromophenyl)-7-(trifluoromethyl)-3,4-dihydroquinazoline-4-carboxamide]  260 nM
24. CC1(C(=O)O)NC(c2ccc(Br)cc2)=Nc2c(Cl)cccc21 (stereo not drawn) [Example 11, 2-(4-bromophenyl)-8-chloro-4-methyl-3H-quinazoline-4-carboxylic Acid]  130 nM
25. O=C(O)C1NC(c2ccc(N3CCCC3)nc2)=Nc2c(Cl)cccc21 (stereo not drawn) [Example 10, 8-chloro-2-(6-pyrrolidin-1-yl-3-pyridyl)-3,4-dihydroquinazoline-4-carboxylic Acid]  50 nM
26. COc1ccc2c(c1)CCN(C1=Nc3c(Cl)cccc3C(C)N1)C2=O (stereo not drawn) [Example 29, 2-(8-chloro-4-methyl-3,4-dihydroquinazolin-2-yl)-6-methoxy-3,4-dihydroisoquinolin-1-one]  27 nM

Same assay, conditions: Hepatitis B virus, HepDES19, 120 h, read-out: IC50 (HBeAg level, HepDES19 primary screen assay)

Work on O=C(NCCCl)C1NC(c2ccc(Br)cc2)=Nc2c(Cl)cccc21 (stereo not drawn) [Example 18, 2-(4-bromophenyl)-8-chloro-N-(2-chloroethyl)-3,4-dihydroquinazoline-4-carboxamide] yielded an IC50 of 2590 nM.

Reference: patent US20220388969A1, “SUBSTITUTED 3,4-DIHYDROQ[…] THE TREATMENT AND PROPHYLAXIS OF HEPATITIS B VIRUS INFECTION” (priority 2019, published 2022)
